In brackets after ≈: the same amount, converted by molar mass. Several values for one entry are separate records, joined by “and”; a condition that tells them apart may be missing. Identical values can stand only once. Activity calls are given as the source filed them. The rule behind the calls is not given here.
Tests used:
Staphylococcus aureus [1] = assay: Antibacterial activity against methicillin-resistant Staphylococcus aureus ATCC 27660 strain; assay type: functional
Enterococcus faecalis [2] = assay: Antibacterial activity against vancomycin-sensitive Enterococcus faecalis ATCC 29212 strain; assay type: functional
Streptococcus pneumoniae [3] = assay: Antibacterial activity against penicillin-resistant Streptococcus pneumoniae ATCC 51422 strain; assay type: functional
Staphylococcus aureus [4] = assay: Antibacterial activity against methicillin-sensitive Staphylococcus aureus ATCC 13709 strain; assay type: functional
Escherichia coli = assay: Antibacterial activity against Escherichia coli ATCC 25922 strain; assay type: functional
Enterococcus faecalis [5] = assay: Antibacterial activity against vancomycin-resistant Enterococcus faecalis ATCC 51559 strain; assay type: functional
Streptococcus pneumoniae [6] = assay: Antibacterial activity against penicillin-sensitive Streptococcus pneumoniae ATCC 49619 strain; assay type: functional
Streptococcus pneumoniae [7] = assay: Antibacterial activity against penicillin-resistant Streptococcus pneumoniae ATCC 51422 strain; NA means not analyzed; assay type: functional, organism-based
Nucleic Acid = assay: Dissociation constant for the DNA binding was determined by quantitative DNase I footprint titration; assay type: nucleic-acid assay
Enterococcus faecalis [8] = assay: Antibacterial activity against vancomycin-resistant Enterococcus faecalis ATCC 51559 strain; NA means not analyzed; assay type: functional, organism-based
Enterococcus faecalis [9] = assay: Antibacterial activity against vancomycin-susceptible Enterococcus faecalis ATCC 29212 strain; assay type: functional
Staphylococcus aureus [10] = assay: Antibacterial activity against methicillin-susceptible Staphylococcus aureus ATCC 13709 strain; (Range is 1-2 ug/mL); assay type: functional
Staphylococcus aureus [11] = assay: Antibacterial activity against methicillin-susceptible Staphylococcus aureus ATCC 13709 strain; assay type: functional
Haemophilus influenzae = assay: Antibacterial activity against Haemophilus influenzae ATCC 78025 strain; assay type: functional
Moraxella catarrhalis = assay: Antibacterial activity against Moraxella catarrhalis ATCC 25238 strain; assay type: functional
Pseudomonas aeruginosa = assay: Antibacterial activity against Pseudomonas aeruginosa (ATCC 27853) strain; inactive; assay type: functional
Mus musculus = assay: In vivo protective dose for efficacy against a lethal infection of methicillin-resistant Staphylococcus aureus in a mouse peritoneal sepsis model administered intravenously; assay type: functional

SMILES | MIC (Staphylococcus aureus [1]) [µg/mL] | MIC (Enterococcus faecalis [2]) [µg/mL] | MIC (Streptococcus pneumoniae [3]) [µg/mL] | MIC (Staphylococcus aureus [4]) [µg/mL] | MIC (Escherichia coli) [µg/mL] | MIC (Enterococcus faecalis [5]) [µg/mL] | MIC (Streptococcus pneumoniae [6]) [µg/mL] | MIC (Streptococcus pneumoniae [7]) | Kd (Nucleic Acid) [nM] | MIC (Enterococcus faecalis [8]) | MIC (Enterococcus faecalis [9]) [µg/mL] | MIC (Staphylococcus aureus [10]) [µg/mL] | MIC (Staphylococcus aureus [11]) [µg/mL] | MIC (Haemophilus influenzae) [µg/mL] | MIC (Moraxella catarrhalis) [µg/mL] | MIC (Pseudomonas aeruginosa) [µg/mL] | Protective dose (Mus musculus)
Cn1cc(NC(=O)c2sc3ccccc3c2Cl)cc1-c1nc2cc(C(=O)NCCN3CCOCC3)ccc2[nH]1 | 0.13 (≈ 0.231 µM) | 0.5 (≈ 0.888 µM) | 0.25 (≈ 0.444 µM) | 0.25 (≈ 0.444 µM) | > 32 | 0.25 (≈ 0.444 µM) | 0.13 (≈ 0.231 µM) | – | – | – | – | – | – | – | – | – | –
Cn1cc(NC(=O)c2sc3ccccc3c2Cl)cc1C(=O)Nc1cc(-c2nc3cc(C(=O)NCCN4CCOCC4)ccc3[nH]2)n(C)c1 | 0.5 (≈ 0.73 µM) | 0.25 (≈ 0.365 µM) | 0.13 (≈ 0.19 µM) | 0.13 (≈ 0.19 µM) | > 32 | 0.25 (≈ 0.365 µM) | 0.13 (≈ 0.19 µM) | – | – | – | – | – | – | – | – | – | –
Cn1cc(NC(=O)c2sccc2Cl)cc1C(=O)Nc1cc(-c2nc3cc(C(=O)NCCN4CCCCC4)ccc3[nH]2)n(C)c1 | 0.5 (≈ 0.79 µM) | 0.5 (≈ 0.79 µM) | 0.13 (≈ 0.205 µM) | 2 (≈ 3.16 µM) | > 32 | 0.5 (≈ 0.79 µM) | 0.25 (≈ 0.395 µM) | – | – | – | – | – | – | – | – | – | –
Cn1cc(NC(=O)c2sccc2Cl)cc1-c1nc2cc(C(=O)NCCN3CCOCC3)ccc2[nH]1 | 8 (≈ 15.6 µM) | 4 (≈ 7.8 µM) | – | 8 (≈ 15.6 µM) | > 32 | – | 4 (≈ 7.8 µM) | inactive | ~500 | inactive | – | – | – | – | – | – | –
Cn1cc(NC(=O)c2ccc(Cl)cc2F)cc1-c1nc2cc(C(=O)NCCN3CCOCC3)ccc2[nH]1 | 0.25 (≈ 0.476 µM) | 0.03 (≈ 0.0571 µM) | 0.03 (≈ 0.0571 µM) | 0.13 (≈ 0.248 µM) | > 32 | 0.06 (≈ 0.114 µM) | 0.03 (≈ 0.0571 µM) | – | – | – | – | – | – | – | – | – | –
Cn1cc(NC(=O)c2cc(NC(=O)c3cc(NC(=O)c4sccc4Cl)cn3C)cn2C)cc1C(=O)NCCN1CCOCC1 | – | – | – | – | > 32 | – | 0.13 (≈ 0.203 µM) | – | – | – | 1 (≈ 1.56 µM) | 2 (≈ 3.12 µM) | – | – | – | – | –
Cn1cc(NC(=O)c2ccc3[nH]c(-c4cc(NC(=O)c5sccc5Cl)cn4C)nc3c2)cc1C(=O)NCCN1CCOCC1 | – | – | – | – | > 32 | – | 0.25 (≈ 0.394 µM) | – | – | – | 0.25 (≈ 0.394 µM) | – | 0.13 (≈ 0.205 µM) | – | – | – | –
Cn1cc(NC(=O)c2cc3ccccc3cn2)cc1-c1nc2cc(C(=O)NCCN3CCOCC3)ccc2[nH]1 | 0.5 (≈ 0.955 µM) | 0.5 (≈ 0.955 µM) | 0.5 (≈ 0.955 µM) | 0.5 (≈ 0.955 µM) | > 32 | 1 (≈ 1.91 µM) | 0.25 (≈ 0.477 µM) | – | ~10 | – | – | – | – | – | – | – | –
Cn1cc(NC(=O)c2ccc(Cl)cc2F)cc1C(=O)Nc1cc(-c2nc3cc(C(=O)NCCN4CCOCC4)ccc3[nH]2)n(C)c1 | 0.13 (≈ 0.201 µM) | 0.03 (≈ 0.0464 µM) | 0.13 (≈ 0.201 µM) | 0.25 (≈ 0.386 µM) | 8 (≈ 12.4 µM) | 0.13 (≈ 0.201 µM) | 0.03 (≈ 0.0464 µM) | – | – | – | – | – | – | – | – | – | –
Cn1cc(NC(=O)c2cc3cc4c(cc3s2)OCO4)cc1-c1nc2cc(C(=O)NCCN3CCOCC3)ccc2[nH]1 | 0.03 (≈ 0.0524 µM) | 0.03 (≈ 0.0524 µM) | 0.06 (≈ 0.105 µM) | 0.03 (≈ 0.0524 µM) | 0.5 (≈ 0.873 µM) | 0.03 (≈ 0.0524 µM) | 0.06 (≈ 0.105 µM) | – | – | – | – | – | – | 0.06 (≈ 0.105 µM) | 0.031 (≈ 0.0541 µM) | 32 (≈ 55.9 µM) | –
Cn1cc(NC(=O)c2ccc(F)cc2F)cc1C(=O)Nc1cc(-c2nc3cc(C(=O)NCCN4CCOCC4)ccc3[nH]2)n(C)c1 | 0.13 (≈ 0.206 µM) | 0.06 (≈ 0.0951 µM) | 0.06 (≈ 0.0951 µM) | 0.25 (≈ 0.396 µM) | 4 (≈ 6.34 µM) | 0.25 (≈ 0.396 µM) | 0.06 (≈ 0.0951 µM) | – | – | – | – | – | – | – | – | – | –
Cn1cc(NC(=O)c2sccc2Cl)cc1C(=O)Nc1cc(-c2nc3cc(C(=O)NCCN4CCOCC4)ccc3[nH]2)n(C)c1 | 0.25 (≈ 0.394 µM) | – | 0.03 (≈ 0.0472 µM) | – | 4 (≈ 6.3 µM) | 0.13 (≈ 0.205 µM) | 0.25 (≈ 0.394 µM) | – | < 0.1 | – | 0.25 (≈ 0.394 µM) | – | 0.25 (≈ 0.394 µM) | – | – | – | 50 mg/kg and 20 mg/kg
Cn1cc(NC(=O)c2sccc2Cl)cc1C(=O)Nc1cc(-c2nc3cc(C(=O)NCCN4CCSCC4)ccc3[nH]2)n(C)c1 | 0.5 (≈ 0.768 µM) | 0.13 (≈ 0.2 µM) | 0.06 (≈ 0.0921 µM) | 1 (≈ 1.54 µM) | > 32 | 0.13 (≈ 0.2 µM) | 0.13 (≈ 0.2 µM) | – | – | – | – | – | – | – | – | – | –

Source: ChEMBL document CHEMBL1147602, “DNA binding ligands targeting drug-resistant Gram-positive bacteria. Part 1: Internal benzimidazole derivatives” (Bioorg Med Chem Lett, 2004)
